“Also recorded” adds a separate entry of the source. Bridge positions count the residues as written; N and C are the ends. Ends that are not written are not given here.
Test system: potassium channel
Assay: Whole-cell patch clamp, Kv currents in DRG neurons
Format: cell-based, rat
Details: 20 μM ISTX-I, 500 ms depolarized potential of +10 mV
Procedure: Rat DRG cells were acutely dissociated from adult Sprague-Dawley rats[30]. Briefly, adult rats of either sex with body weights of approximately 200 g were killed by decapitation. The dorsal root ganglia were isolated quickly from the spinal cord and then transferred into Dulbecco’s modified Eagle’s medium (DMEM) containing trypsin I (0.15 mg/mL) and collagenase II (0.3 mg/mL) for incubation with an oscillation frequency of 200 rpm at 37 °C for 20 min. The trypsin inhibitor II-S (1 mg/mL) was added to terminate the reaction. […]
DRG neurons with a large diameter (>[…]) and those with a relatively small diameter (<[…]) were chosen by measuring TTX-s and TTX-r currents, respectively. […] Potassium, calcium, and sodium currents were recorded in experimental cells using whole-cell patch-clamp recordings at room temperature, which were performed with an HEK EPC10 patch-clamp amplifier. […] Experimental data were acquired and analyzed using the programs patch master and Sigmaplot 9.0 (Sigma, USA). […]
Currents were recorded from experimental cells using whole-cell patch clamptechnique at room temperature (22–25 °C). […]
(pH 7.4). K+ currents were recorded using an internal solution containing the followings (in mM): KCl 140, MgCl2 2.5, HEPES 10, and EGTA 11 (pH 7.2). […]

Question: With “LCSENGDCAADECCVDTVFEGDMVTRSCEKTTGNFTECPGLTPIA (disulfide 2-14, 8-28, 13-38) [ISTX-I]” as the sequence, how does the “effect on potassium channels” value read?
Answer: no obvious effects; also recorded: No effects were detected

Source: publication PMC4942781, “A sodium channel inhibitor ISTX-I with a novel structure provides a new hint at the evolutionary link between two toxin folds” (Scientific Reports, 2016)
